Source: US9745288B2, “Compounds and methods for treating cancer by inhibiting the urokinase receptor” (Indiana University Research and Technology Corporation, priority 2011, dated 2017)

Tests used:
[1] = system: MDA-MB-231 cells; assay: Migration assay (Boyden chamber without Matrigel); assay type: cell-based; conditions: Homo sapiens
Experimental: Invasion and Migration Assays. These assays were performed using BD BioCoat Matrigel Invasion Chamber (Cat. 354480, BD Biosciences, Bedford, Mass.). The undersurface of the inserts was coated with 30 μg/mL of fibronectin (Sigma, F2006) in PBS at 4° C. overnight. The inserts were washed with PBS once. Then, 0.5 mL of serum-free medium was separately added to the upper and lower chambers to equilibrate the Matrigel invasion chambers at 37° C., 5% CO2 for 2 hours. After starvated with serumfree DMEM or 4 hours, subconfluent MDA-MB-231 cells were trypsinized and resuspended in 0.1% FBS DMEM. 5×10^4 cells in 500 μL of 0.1% FBS DMEM containing various compounds or 1.0% DMSO (as control) were added to the upper chambers. […] We incubated the invasion chambers for 3 hours at 37° C., 5% CO2. Non-invaded cells were removed from the upper chamber with a cotton swab. The invaded cells were fixed with 100% methanol and then stained with Hematoxylin Stain Harris Modified Method (Fisher, SH30-500D). The filters were washed with water 3 times. Filters were air dried and the invaded cells were counted in ten randomly selected microscopic fields (×200 magnification). The experiment was performed in triplicate per group and shown by mean±SE.

[2] = system: TMD-231 cells; assay: TMD-231 mammary fat pad xenograft, tumor growth and lung metastasis; assay type: in vivo
Source text: Mouse Xenograft Studies. NOD/SCID mice were obtained from the on-site breeding colony maintained by the In Vivo Therapeutics Core at the Indiana University Simon Cancer Center (IUSM, Indianapolis, Ind.) and maintained in pathogen-free conditions within the laboratory animal resources center (LARC) at the Indiana University School of Medicine according to an approved protocol by the Institutional animal care and use committee (IACUC) committee.
For metastasis studies, m.f.p. tumors were allowed to grow to approximately 100 mm^3 mice. Mice were assigned to treatment group based on average tumor size/weight. Following a recovery period of two days, mice received treatment of investigational drug (n=15) or a PBS solvent control (n=15). After four weeks mice were euthanized, the lungs were resected, fixed in formalin solution, sectioned, and stained with hematoxylin and eosin (H&E) for analysis. […] Tumor volume were be calculated as Length*Width^2/2 in millimeters.
TMD-231 cells were inoculated into the mammary fat pad of female NOD/SCID mice. Dosing was initiated at day 18 post implantation. Animals were randomized and treated with vehicle or with IPR-69 by daily oral gavage at a dose of 150 mg/kg (n=11). Tumor volumes were determined by caliper measurements on a […], and calculated according to the formula (α2×β)/2, where α is the shorter and β is the longer of the two dimensions. Tumor volumes were determined by caliper measurements on a weekly basis. The study was conducted over a period of 68 days. […] Once the tumor volume reached 30 mm^3 to 50 mm^3, animals were randomized and treated with vehicle alone as control or 150 mg/kg IPR-69 three times a week for 10 weeks by oral gavage. Tumor volumes were determined by caliper measurements obtained weekly. Over the course of the study, several mice were sacrificed to determine whether breast tumor cells had metastasized to the lungs. At the end of the study, control and experimental animals were sacrificed and organs (lungs) were removed and evaluated for the presence of tumors. The number and size of metastasis in two to five fields per sample were calculated. […] Briefly, percentage of staining was categorized as “0” if there was no nuclear/cytoplasmic expression, “1” for up to 10% positive tumor nuclei/cells, “2” for 11-20% and until a maximum score of “10”. Intensity was scored as “1+,” “2+,” and “3+” for weak, moderate and strong staining respectively.

[3] = system: MDA-MB-231 cells; assay: Adhesion assay on fibronectin-coated wells; assay type: cell-based, human; conditions: Homo sapiens; MDA-MB-231, fibronectin
Experimental: Adhesion Assay. Quantitative cell adhesion assays were carried out in nontissue culture treated 96-well microtiter plates (Evergreen Scientific, Los Angeles, Calif.) which were coated with 15 μg/mL fibronectin (Sigma) for 1 h at room temperature. Fibronectin coated and uncoated control wells were blocked for 1 h with 3% heat denatured bovine serum albumin (BSA) at 37° C. Cells were split one day prior to the experiment to achieve a subconfluent culture. […] The wells were washed and the number of adherent cells was quantified by crystal violet staining at 570 nm.^19,20 The results were shown by means±SE.

[4] = biological target: CYP2C9 (Homo sapiens, UniProt P11712); assay: Fluorescence-based CYP2C9 inhibition assay; conditions: human
Experimental: CYP metabolism was measured using a fluorescence-based assay designed by Cohen et al.,^41 recently implemented by Invitrogen (Carlsbad, Calif.).

[5] = In vivo PK study, plasma HPLC MS/MS; parameters: species or system mouse; conditions: mice
Experimental: Pharmacokinetics of the Leads in Rodents. A method to quantify IPR-69 in plasma was developed using HPLC-MS/MS (API 3200; Applied Biosystems). A 20 μL plasma sample was extracted with methyl tertiary butyl ether (MTBE) under neutral conditions (0.1 M phosphate buffer pH=7.4) using temazepam as the internal standard. The extract is evaporated, reconstituted with mobile phase and injected into the HPLC. The HPLC column is a C-8 50×4.6 mm 5-μm column and separation of UPR and temazepam occurred by a linear gradient mobile phase starting with acetonitrile:0.1% formic acid (10:90) and changing to 80:20. The m/z Q1 and Q3 settings on the API 3200 for UPR and temazepam are 418/297 and 301/255, respectively. The lower limit of quantification of IPR-69 is 1 ng/mL using 20 μL of plasma. A standard response curve of IPR-69 was created with concentrations that varied from 1 ng/mL to 1000 ng/mL using 300 ng/mL of temazepam for each sample. To determine drug concentrations of the lead inhibitors in the pharmacological models, the PK properties of the compounds in mice must be characterized. The PK of IPR-69 was determined in NOD/SCID mice following a single dose given PO. The study design used 3 mice per time point. Blood was collected at time intervals from 0 to 24 hours after dosing (8 time points), quantified by the procedure described above. Pharmacokinetic parameters for IPR-69 including area under the curve (AUC), area under the moment curve (AUMC), and t1/2 were estimated using non-compartmental methods with Excel®. The maximum plasma concentration (Cmax) and time of Cmax (tmax) were obtained from the data. The AUC from zero to infinity (AUC0-∞) was estimated from the AUC0-t (time zero to the last quantifiable concentration Clast) and the AUC from Clast to infinity, Clast/kel, where kel is the rate constant of elimination. The AUMC0-∞ was estimated by an analogous manner. The systemic clearance (Cl/F, where F=bioavailability) of IPR-69 was calculated from the dose and AUC0-∞. […]

[6] = system: MMP-9; assay: Gelatin zymography of MDA-MB-231 conditioned medium; assay type: cell-based, human
Experimental: Gelatin Zymography. MDA-MB-231 cells were treated with different concentrations of uPAR compounds in serum free medium for 24 h, the conditioned medium were collected, concentrated by Amicon Ultra centrifugal filter units (Millipore, #UFC500324), proteins were normalized and electrophoresed on sodium dodecyl sulfate (SDS)-polyacrylamide gels (10%) containing 1 mg/mL gelatin. After electrophoresis, the gel was washed twice in 50 mM Tris-HCl (pH 7.6) containing 5 mM CaCl2 and 2.5% Triton X-100 for 30 minutes at room temperature and incubated in buffer that contained 50 mM Tris-HCl (pH 7.6), 200 mM NaCl, 10 mM CaCl2 at 37° C. for 36 h. Then, the gels were stained with 0.05% Coomassie brilliant blue (CBB) and destained with 30% methanol in 10% acetic acid. Areas of gelatinolytic degradation appeared as transparent bands on the blue stained background of the gel. Data were quantified using Image J.
To degrade collagen within the ECM, malignant cells unleash a series of extracelullar proteases known as matrix metalloproteinases (MMPs).

CYP2C9, sequence (P11712 whole entry): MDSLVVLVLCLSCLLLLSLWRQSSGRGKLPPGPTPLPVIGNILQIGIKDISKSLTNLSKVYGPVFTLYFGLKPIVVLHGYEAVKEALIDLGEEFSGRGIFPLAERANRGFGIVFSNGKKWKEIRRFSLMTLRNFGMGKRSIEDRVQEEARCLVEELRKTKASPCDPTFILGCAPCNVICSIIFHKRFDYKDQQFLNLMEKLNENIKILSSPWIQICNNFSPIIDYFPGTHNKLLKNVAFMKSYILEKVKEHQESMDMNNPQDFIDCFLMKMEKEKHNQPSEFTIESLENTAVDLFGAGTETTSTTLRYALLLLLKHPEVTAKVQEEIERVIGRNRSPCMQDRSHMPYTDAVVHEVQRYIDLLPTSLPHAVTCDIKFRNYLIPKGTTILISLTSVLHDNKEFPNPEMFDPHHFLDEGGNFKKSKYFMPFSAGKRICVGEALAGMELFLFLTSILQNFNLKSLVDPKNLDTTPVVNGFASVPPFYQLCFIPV

## Cc1cc(C)cc(NC(=O)c2cnn(-c3ccc(C(C)C)cc3)c2C2CCNCC2)c1 [IPR-69, N-(3,5-dimethylphenyl)-1-(4-isopropylphenyl)-5-(piperidin-4-yl)-1H-pyrazole-4-carboxamide]
[1]
  IC50: 40 µM
[2]; 150 mg/kg oral gavage
  treated mice with metastatic lesions of score >2: 3
[2]; 150 mg/kg oral gavage, average, 68 days
  tumor volume at the end of the study: 779 mm^3
[2]; 150 mg/kg oral gavage, n=11
  treated mice with signs of metastatic lesions in the lungs: 3 out of 11
[2]; compared with untreated mice
  metastasis to the lungs: less extensive metastasis to the lungs
[2]; doses as high as 150 mg/kg, mice
  tolerability: well tolerated
[3]
  IC50: 45 µM
[4]
  inhibition of CYP2C9: little inhibition of CYP2C9
[5]; NOD/SCID, mouse, plasma, estimated, single oral gavage of 50 mg/kg
  half-life: ~2 h
[5]
  oral bioavailability: orally bioavailable
[5]; single oral gavage of 50 mg/kg
  time of maximum level: approximately 5 hours
[6]
  MMP-9 activity in gelatin zymography: some inhibition of MMP-9
[6]; estimated, read-out: IC50 for inhibition of MMP-9 activity
  IC50: 25 µM
